Experimental findings from patent US5559209A, “Regulator regions of G proteins” (The General Hospital Corporation, priority 1993, dated 1996) are described below.

Assay [1] deals with NRK (rat renal fibroblast) cells. Put plainly: TGFβ-induced fibronectin secretion, immunoblot. Type of assay: cell-based. The settings on record: 50 pM TGFβ, 12 hours. An excerpt: Inhibition of TGFβ-induced matrix formation. The secretion of matrix proteins (in particular, fibronectin) by kidney, lung and liver cells may lead to sclerosis of those organs. Transforming growth factor-β (TGFβ), which stimulates the secretion of fibronectin, may therefore contribute to such sclerosis. Since the TGFβ receptor is a Go2 -coupled receptor, the ability of ACGo2 to inhibit the TGFβ-induced stimulation of fibronectin secretion by NRK (rat renal fibroblast) cells (Ignotz and Massague, J. Biol. Chem. 261:4337-4345, 1986) was assayed.
NRK cells were cultured in RPMI 1640 supplemented with 5% FCS in a CO2 -incubator at 37° C. The medium was replaced every two days. Cells were regularly subcultured by trypsin-EDTA before reaching confluency. In the experiments described below, the cells were grown in monolayer to confluency in 6-well culture plates (Corning, N.Y.), then incubated for 12 hours with RPMI 1640 plus 0.5% FCS, and for a further 12 hours with RPMI 1640 plus 0.5% FCS in the presence or absence of 50 pM TGFβ (R & D System, Minneapolis, Minn.), to which was added 100 μM ACGi2, ACGs, ACGo2, or ACGq. The medium from each well was collected and frozen at -20° C. until assay. Fibronectin secreted into each sample of medium was assessed by immunoblot as follows: […]
In general terms: In western blotting, separated proteins are transferred to a membrane and probed.

The next assay addresses T1, Gi2 (Bos taurus, UniProt A7MBH9).
T1 construct: trimeric Gi2 (i.e., Gi2 αβγ) purified from bovine brain to near homogeneity; from tissue; host or cells: bovine brain
The assay can be described thus: GTPγS binding assay, peptide 14-induced Gi2 activation. The assay is classed as biochemical, bovine. To be noted: 10 μM peptide variant, 10 nM Gi2, 30 μM peptide 14. The procedure: Materials and Methods The in vitro assays described below utilize the couplone portion of each of a number of G-coupled receptors, instead of an intact receptor molecule, as a means for activating the corresponding anticouplone or intact G-protein. Except as noted below, Gi2 used in this study was trimeric Gi2 (i.e., Gi2 αβγ) purified from bovine brain to near homogeneity (Katada et al., FEBS Lett. 213:353-358 (1987), stored in buffer A (20 mM hepes/NaOH (pH 7.4), 1 mM EDTA, and 0.7% CHAPS), and diluted≥10 fold for assays. The Gi2 used for the reconstitution experiment was trimeric Gi2 purified from bovine spleen to homogeneity and dissolved in buffer B (Morishita et al., 1989). Gi3 α (Morishita et al., Biochem. Biophys. Res. Commun. 172:249-255 (1990), was purified from bovine spleen and used in combination with 1.5-fold concentrated Gβγ (Katada et al., 1987). This preparation of Gi3 α was 10-20% contaminated by Gi1 α, but not by other G proteins. Trimeric Gs and Gβγ purified from bovine brain to near homogeneity (Katada et al., 1987) were also stored in buffer A.
GTPγS binding Assay--GTPγS binding to G proteins was assayed at 37° C. in 20 mM Hepes/NaOH buffer (pH 7.4) containing 130 μM MgCl2, 110 μM EDTA and 60 nM [^35 S]GTPγS, as described previously (Okamoto et al., 1990). GTPγS binding to polypeptides was negligible. The total amount of G protein was measured as maximal GTPγS binding at room temperature, as described (Okamoto et al., Cell 67:723-730, 1991a). [^35 S]GTPγS was purchased from DuPont-New England Nuclear. Binding of GTPγS to G proteins obeyed first-order kinetics according to the equation ln[(BT-B)/BT]=-kapp t, where B is the binding at time t and BT is the total binding observable at an infinite time. Thus, the apparent first-order rate constant for GTPγS binding (kapp), which is equal to the slope of the tangent to the GTPγS binding curve at time 0 and represents the actual GTPγS binding rate, was calculated from this equation.
In the experiment illustrated in FIG. 1A, 10 nM Gi2 was incubated with 30 μM peptide 14 (RVGLVRGEKARKGK; SEQ ID NO: 27), the couplone portion of the IGF-II receptor, in the presence of various concentrations of (.quadrature.) ACGi2 (DAVTDVIIKNNLKDC; SEQ ID NO: 3), (567 ) the control Gi2 α Glu297-Asp310 peptide (EAASYIQSKFEKLN; SEQ ID NO: 18), or (.diamond.) the control Gi2 α Lys346-Phe355 peptide (KNNLKDCGLF; SEQ ID NO: 19) for 5 min under the GTPγS binding assay conditions described above, and GTPγS binding to G proteins was measured. The effect of ACGi2 on Gi2 in the absence of peptide 14 is indicated by .box-solid.. Percent stimulation of GTPγS binding was calculated by subtracting the basal fractional binding and dividing by the stimulated fractional binding observed in the absence of ACGi2. The basal fractional binding (=0%) was 0.39 mol GTPγS binding/mol Gi /5 min (5 min^-1). The 100% increase represents the GTPγS binding of 0.85 (5 min^-1). Values in all figures represent the mean ±S.E. of three experiments.
To verify the notion that ACGi2 acts on Gi2 itself, and not on receptor sequences, two series of experiments were performed. First, the dose-response curve for peptide 14 action on Gi2 in the presence of various concentrations of ACGi2 was generated (FIG. 2A). Following incubation of 10 nM Gi2 with various concentrations of peptide 14 in the absence (.quadrature.) or presence of 10 μM (.diamond-solid.) or 30 μM (.box-solid.) ACGi2 for 5 min, GTPγS binding was assayed; fractional GTPγS binding to Gi2 is indicated in the figure.
The second series of experiments investigated the effect of ACGi2 on lower concentrations of Gi2 that had been activated by peptide 14 to the same extent (FIG. 2B). 1 nM Gi2 was incubated for 5 min with 3 μM peptide 14 in the presence of various concentrations of ACGi2, and GTPγS binding was measured. The fractional GTPγS binding at 0% and 100% in this experiment was 0.40 and 0.55 (5 min^-1), respectively. […]
In general terms: GTPγS resists hydrolysis and so accumulates on activated G proteins.

Assay [2] concerns somatostatin receptor/K+ channel linkage in human growth hormone-secreting pituitary adenoma cells. Put plainly: Somatostatin-induced K+ currents, whole cell patch clamp. The assay is classed as cell-based. The settings on record: 100 nM somatostatin, absence of anticouplone peptides. The procedure: Inhibition Of somatostatin receptor function. It is known that somatostatin induces K^+ channel activation in a manner sensitive to pertussis toxin in human growth hormone-secreting tumors (Yamashita et al., Am. J. Physiol. 253:E28-E32, 1987). The effect of each of ACGi2, ACGi3, ACGs, ACGo1, and ACGo2 on somatostatin-induced K^+ currents in human pituitary cells was measured using the patch clamp technique, as described below.
Three human growth hormone-secreting pituitary adenomas were obtained at transsphenoidal surgery. The tissue was minced into small pieces (less than 1 mm in diameter) and was treated with 1000 units/ml dispase (Wako, Japan). These dissociated cells (≈10^5 cells/ml) were seeded onto 35-mm culture dishes. […]
A whole cell variation of the patch electrode voltage clamp technique was used to record membrane currents (Hamill et al., Pfluger Arch. 391:85-100, […]). […] The liquid junction potential between the extracellular solution and the internal solution was directly measured using a 3M KCl electrode as a reference. […]
The intracellular solution that filled the inside of the pipet portion of the apparatus contained one of the following anticouplone peptides at 100 μM: ACGi2, ACGi3, ACGs, ACGo1, or ACGo2. The exterior of the cell was bathed with the extracellular solution containing 100 nM somatostatin while the outward K^+ current was monitored. […]
(The patch-clamp technique gives a direct electrical read-out from membranes.)

A further assay deals with T cell receptor. Put plainly: OKT3-induced polyphosphoinositide turnover in Jurkat cells. Type of assay: cell-based, human. The settings on record: OKT3 1:100 for 5 min, no peptide. As for the experimental part:
Inhibition of T cell receptor function with ACGq. T cell receptor stimulation by monoclonal antibody OKT^3 in Jurkat cells, a line of human T cells, induces measurable polyphosphoinositide (PI) turnover. 10^7 cells were labelled with 5 μCi/ml [^3 H]myoinositol in inositol-free RPMI1640 for 12 hours. After incubating the cells with 500 μM ACGq, samples containing 5×10^5 cells were then exposed to the monoclonal antibody OKT3 (Ortho) at 1:100 dilution for 5 min. Perchloric acid was added to a final concentration of 10% to lyse the cells and terminate the reaction. Cell lysates were collected into tubes and brought to pH>8 by the addition of KOH. Following centrifugation of the lysates, the supernatants were passed over a DOWX anion exchange column (Muromachi Chemicals, Japan) to separate inositol polyphosphates (IPs) from other inositol metabolites, and the amount of [^3 H] label in the inositol trisphosphate (IP3) fraction assessed.

Where no end group is shown, it is not given here.

T1 sequence (A7MBH9 2-355 limits assumed): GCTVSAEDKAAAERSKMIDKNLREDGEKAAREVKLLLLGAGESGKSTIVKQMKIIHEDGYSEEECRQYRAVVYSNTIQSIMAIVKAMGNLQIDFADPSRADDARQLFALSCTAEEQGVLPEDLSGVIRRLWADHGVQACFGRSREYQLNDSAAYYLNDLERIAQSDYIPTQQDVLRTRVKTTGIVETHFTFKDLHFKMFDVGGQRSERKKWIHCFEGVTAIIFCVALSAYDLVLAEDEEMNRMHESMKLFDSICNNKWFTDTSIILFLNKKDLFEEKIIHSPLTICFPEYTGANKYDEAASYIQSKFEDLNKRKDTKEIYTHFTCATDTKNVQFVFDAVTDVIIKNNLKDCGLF
T1 sequence (P62871 2-340 partner limits assumed): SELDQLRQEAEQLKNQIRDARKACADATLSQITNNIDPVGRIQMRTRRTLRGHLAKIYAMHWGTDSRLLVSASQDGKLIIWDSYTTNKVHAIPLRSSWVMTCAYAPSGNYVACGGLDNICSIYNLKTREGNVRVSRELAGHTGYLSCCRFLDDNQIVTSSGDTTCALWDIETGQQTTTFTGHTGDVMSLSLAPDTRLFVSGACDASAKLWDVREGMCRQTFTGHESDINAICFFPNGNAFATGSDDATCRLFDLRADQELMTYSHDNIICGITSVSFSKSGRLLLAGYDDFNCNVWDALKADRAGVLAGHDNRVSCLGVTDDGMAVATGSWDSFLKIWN
T1 sequence (P63212 2-68 partner limits assumed): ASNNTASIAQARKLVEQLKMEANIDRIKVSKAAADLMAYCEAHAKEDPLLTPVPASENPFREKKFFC

As to “TGFβ: Transforming growth factor-β, which stimulates the secretion of fibronectin”, the “fibronectin secreted by cells exposed to TGFβ” value in assay [1] is “significant amount of fibronectin is secreted”.

In the case of “DAVTDVIIKNNLKAC [A5 variant, DAVTDVIIKNNLKAC]”, at Gi2, the inhibition (usually the change of the read-out against control, counted positive when it falls) at 10 µM was at least 80%.

As to “AAVTDVIIKNNLKDC [A1 variant, AAVTDVIIKNNLKDC]”, the inhibition at 10 µM on Gi2 is at least 30%.

As for “DAVTAVIIKNNLKDC [A2 variant, DAVTAVIIKNNLKDC]”, the inhibition at 10 µM at Gi2 is at least 80%.

Turning to `C[C@H](N)C(=O)NCC(=O)N[C@H]1CSSC[C@@H](C(=O)O)NC(=O)[C@H](CO)NC(=O)[C@H]([C@@H](C)O)NC(=O)[C@H](Cc2ccccc2)NC(=O)[C@H]([C@@H](C)O)NC(=O)[C@H](CCCCN)NC(=O)[C@H](Cc2c[nH]c3ccccc23)NC(=O)[C@H](Cc2ccccc2)NC(=O)[C@H](Cc2ccccc2)NC(=O)[C@H](CC(N)=O)NC(=O)[C@H](CCCCN)NC1=O` [somatostatin], the “K+ current induced over baseline” value in assay [2] is “approximately 20 pA”.

With “OKT3: monoclonal antibody OKT3 (Ortho) stimulating the T cell receptor”, the “[3H] incorporation into IP relative to control cells not exposed to OKT3” value in the assay with T cell receptor was 157%.

As for DAVTDVIIK [p9 variant, DAVTDVIIK], the inhibition at 10 µM at Gi2 is at least 30%.

With “DAVTDVIIKNNLKD [del C variant, DAVTDVIIKNNLKD]”, on Gi2, the inhibition at 10 µM is at least 30%.

Consider “DAVTDVIIKANLKDC [A3 variant, DAVTDVIIKANLKDC]”, for which the inhibition at 10 µM on Gi2 is at least 30%.
